Laboratory results taken from patent US20040009890A1, “Broad spectrum inhibitors” (priority 2002, published 2004).

Test system: wild type and multidrug resistant HIV strains
Assay: Antiviral activity against wild type HIV and multidrug resistant patient isolates (PHA-PBMC, p24 Gag production)
Type: cell-based
Conditions: for antiviral potency against multidrug resistant HIV strains compared with wild type: wild type vs multidrug resistant HIV strains; for antiviral activity against HIV derived from patient isolates that contain multiple mutations, compared with wild type HIV strains: patients never exposed to the tested compounds
From the text: IC50 's for broad spectrum protease inhibitors can be measured against wild type HIV and clinically isolated mutant HIV isolates, utilizing the PHA-PBMC exposed to HIV-1 (50 TCID50 dose/[…] PBMC) as target cells and using the inhibition of p24 Gag protein production as an endpoint. The amounts of p24 antigen produced by the cells can be determined on day 7 in culture using a commercially available radioimmunoassay kit.

Structure (SMILES) | antiviral potency against multidrug resistant HIV strains compared with wild type | antiviral activity against HIV derived from patient isolates that contain multiple mutations, compared with wild type HIV strains
CC(C)(C)NC(=O)[C@@H]1C[C@@H]2CCCC[C@@H]2CN1C[C@@H](O)[C@H](Cc1ccccc1)NC(=O)[C@H](CC(N)=O)NC(=O)c1ccc2ccccc2n1 [Compound 4, Saquinavir] | dramatically less potent against the multidrug resistant strains of HIV | 
COc1ccc(S(=O)(=O)N(CC(C)C)C[C@@H](O)[C@H](Cc2ccccc2)NC(=O)O[C@H]2CO[C@H]3OCC[C@H]32)cc1 [Compound 1] | equally effective against wild type and mutant HIV strains | equivalent to their activity against wild type HIV strains
CC(C)c1nc(CN(C)C(=O)N[C@H](C(=O)N[C@@H](Cc2ccccc2)C[C@H](O)[C@H](Cc2ccccc2)NC(=O)OCc2cncs2)C(C)C)cs1 [Compound 5, Ritonavir] | dramatically less potent against the multidrug resistant strains of HIV | 
CC(C)CN(C[C@@H](O)[C@H](Cc1ccccc1)NC(=O)O[C@H]1CCOC1)S(=O)(=O)c1ccc(N)cc1 [Compound 2, Amprenavir] | dramatically less potent against the multidrug resistant strains of HIV | much less effective against the same mutant viruses
Cc1c(O)cccc1C(=O)N[C@@H](CSc1ccccc1)[C@H](O)CN1C[C@H]2CCCC[C@H]2C[C@H]1C(=O)NC(C)(C)C [Compound 7, Nelfinavir] | dramatically less potent against the multidrug resistant strains of HIV | 
CC(C)(C)NC(=O)[C@@H]1CN(Cc2cccnc2)CCN1C[C@@H](O)C[C@@H](Cc1ccccc1)C(=O)N[C@H]1c2ccccc2C[C@H]1O [Compound 6, Indinavir] | dramatically less potent against the multidrug resistant strains of HIV | 
